We go through one molecule from publication PMC11073449 (Science (New York, N.Y.), 2023).

Where a chain is given by its changes, count along the chain named.

Test [1] has as its target T1, Aster-A (Mus musculus, UniProt Q8VEF1, L400A/F405I).
T1 sequence (Q8VEF1 334-562 L400A/F405I): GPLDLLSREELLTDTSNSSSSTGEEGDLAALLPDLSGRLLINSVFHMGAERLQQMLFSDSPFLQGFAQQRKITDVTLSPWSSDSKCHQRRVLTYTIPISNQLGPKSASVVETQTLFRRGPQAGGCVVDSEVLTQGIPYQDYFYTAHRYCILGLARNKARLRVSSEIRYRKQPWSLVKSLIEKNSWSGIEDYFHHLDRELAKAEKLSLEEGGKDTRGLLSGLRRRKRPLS
Briefly: CD thermal stabilization. It is filed as binding.

In test [2] the target is T2, Aster-A (Mus musculus, UniProt Q8VEF1, L400A).
T2 sequence (Q8VEF1 334-562 L400A): T1 sequence (Q8VEF1 334-562 L400A/F405I) with I72F
Briefly: CD thermal stabilization. It is filed as binding.

Regarding `O=C1[C@H](CC[C@H](O)c2ccc(F)cc2)[C@@H](c2ccc(O)cc2)N1c1ccc(F)cc1` [EZ, ezetimibe], the CD thermal stabilization entry on Aster-A [1] is listed as “The Aster-A mutant L400A_F405I, as well as the single mutant L400A, reduced Aster-A thermal stability”; on Aster-A [2], “but the stability was increased by EZ”.
